Results on 40 compounds are retold here after US20090005363A1, “Organic Compounds” (priority 2005, published 2009).

The target in this experiment is mGluR5 (Homo sapiens, UniProt P41594). Briefly: inhibition of the glutamate induced elevation of intracellular Ca2+ concentration. The following applies: for inhibition at 10 µM: read-out: mGluR5 Activity inh. at 10 μM [%]; for mGluR5 Activity inh. at 10 μM [%]: inhibition of glutamate induced elevation of intracellular Ca2+ concentration at 10 μM.

Where a name gives a salt, the structure may show the parent alone.

Sequence of mGluR5 (P41594 21-1180 isoform P41594-2 limits assumed): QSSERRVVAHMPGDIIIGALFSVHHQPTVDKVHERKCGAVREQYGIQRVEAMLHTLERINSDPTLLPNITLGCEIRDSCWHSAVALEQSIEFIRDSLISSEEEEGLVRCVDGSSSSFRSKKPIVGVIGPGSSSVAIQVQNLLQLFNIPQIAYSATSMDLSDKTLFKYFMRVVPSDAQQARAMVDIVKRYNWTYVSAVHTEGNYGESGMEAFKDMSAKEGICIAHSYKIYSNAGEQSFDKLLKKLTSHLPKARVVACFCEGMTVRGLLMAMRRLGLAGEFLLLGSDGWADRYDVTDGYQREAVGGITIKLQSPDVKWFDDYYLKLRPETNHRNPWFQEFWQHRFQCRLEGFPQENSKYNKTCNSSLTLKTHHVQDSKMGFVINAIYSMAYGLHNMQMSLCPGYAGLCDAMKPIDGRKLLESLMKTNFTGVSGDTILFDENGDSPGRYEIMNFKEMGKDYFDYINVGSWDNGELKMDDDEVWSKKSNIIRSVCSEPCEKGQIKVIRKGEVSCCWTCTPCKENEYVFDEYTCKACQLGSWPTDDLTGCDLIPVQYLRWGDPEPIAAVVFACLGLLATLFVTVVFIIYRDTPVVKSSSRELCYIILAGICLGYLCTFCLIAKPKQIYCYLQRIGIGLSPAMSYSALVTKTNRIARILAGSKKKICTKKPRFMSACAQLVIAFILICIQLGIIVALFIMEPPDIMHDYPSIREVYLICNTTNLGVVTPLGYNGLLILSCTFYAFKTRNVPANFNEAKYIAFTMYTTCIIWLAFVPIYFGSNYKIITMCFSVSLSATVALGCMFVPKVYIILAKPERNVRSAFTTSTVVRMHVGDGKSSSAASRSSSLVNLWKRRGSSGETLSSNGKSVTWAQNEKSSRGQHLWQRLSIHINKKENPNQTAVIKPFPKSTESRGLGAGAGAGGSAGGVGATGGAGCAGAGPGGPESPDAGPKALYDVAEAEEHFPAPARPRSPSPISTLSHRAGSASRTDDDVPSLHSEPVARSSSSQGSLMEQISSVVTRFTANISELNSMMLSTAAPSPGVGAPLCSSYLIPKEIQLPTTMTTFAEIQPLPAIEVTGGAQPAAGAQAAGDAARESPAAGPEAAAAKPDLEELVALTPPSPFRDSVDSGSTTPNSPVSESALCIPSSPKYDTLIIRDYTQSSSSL
Excerpt: This can be determined in vitro for example at recombinant human metabotropic glutamate receptors, especially PLC-coupled subtypes thereof such as mGluR5, using different procedures like, for example, measurement of the inhibition of the agonist induced elevation of intracellular Ca^2+ concentration in accordance with L. P. Daggett et al., Neuropharm.

As for `CC1CCCN(C(=O)c2ccc(Nc3ccc(Cl)cc3)nc2)C1` (racemic) [Compound 1.12, rac-[6-(4-Chloro-phenylamino)-pyridin-3-yl]-(3-methyl-piperidin-1-yl)-methanone], the inhibition at 10 µM was determined as 93%.

For `O=C(c1cnc(Nc2ccc(Cl)cc2)c(Cl)c1)N1CC2CCC1C2` (racemic) [Compound 2.4, rac-(2-Aza-bicyclo[2.2.1]hept-2-yl)-[5-chloro-6-(4-chloro-phenylamino)-pyridin-3-yl]-methanone], the inhibition at 10 µM was found to be 100%.

Take `COc1ccc(Nc2ncc(C(=O)N3CCCC(C)C3)cc2Cl)cn1` (racemic) [Compound 2.6, rac-[5-Chloro-6-(6-methoxy-pyridin-3-ylamino)-pyridin-3-yl]-(3-methyl-piperidin-1-yl)-methanone]: the inhibition at 10 µM amounted to 98%.

Regarding `Cc1ccc(Nc2ncc(C(=O)N3CC4CCC3C4)cc2Cl)cn1` (racemic) [Compound 2.13, rac-(2-Aza-bicyclo[2.2.1]hept-2-yl)-[5-chloro-6-(6-methyl-pyridin-3-ylamino)-pyridin-3-yl]-methanone], the inhibition at 10 µM worked out at 96%.

As to `Cc1ccc(Oc2ncc(C(=O)N3CCCC(C)C3)cc2Cl)cn1` (racemic) [Compound 3.1, rac-[5-Chloro-6-(6-methyl-pyridin-3-yloxy)-pyridin-3-yl]-(3-methyl-piperidin-1-yl)-methanone], the inhibition at 10 µM amounted to 94%.

Turning to `O=C(c1ccc(Nc2ccc(Cl)cc2)nc1)N1CCCC(CO)C1` (racemic) [Compound 4.6, rac-[6-(4-Chloro-phenylamino)-pyridin-3-yl]-(3-hydroxymethyl-piperidin-1-yl)-methanone], the inhibition at 10 µM is 86%.

Turning to `COC1CCCN(C(=O)c2ccc(Nc3ccc(Cl)cc3)nc2)C1` (racemic) [Compound 4.7, rac-[6-(4-Chloro-phenylamino)-pyridin-3-yl]-(3-methoxy-piperidin-1-yl)-methanone], the inhibition at 10 µM was found to be 87%.

For `O=C(c1ccc(Nc2ccc(Cl)cc2)nc1)N1CC2CCC1C2` (racemic) [Compound 4.12, rac-(2-Aza-bicyclo[2.2.1]hept-2-yl)-[6-(4-chloro-phenylamino)-pyridin-3-yl]-methanone], the inhibition at 10 µM amounted to 96%.

As to `Cc1ccc(Nc2ccc(C(=O)N3CCCC(C)C3)cn2)cn1` (racemic) [Compound 4.13, rac-(3-Methyl-piperidin-1-yl)-[6-(6-methyl-pyridin-3-ylamino)-pyridin-3-yl]-methanone], the inhibition at 10 µM came to 97%.

Consider `CC1CCCN(C(=O)c2cnc(Nc3ccc(Cl)cc3)nc2)C1` (racemic) [Compound 5.5, rac-[2-(4-Chloro-phenylamino)-pyrimidin-5-yl]-(3-methyl-piperidin-1-yl)-methanone], for which the inhibition at 10 µM worked out at 96%.

Take `CC1CCCN(C(=O)c2ccc(Nc3ccc(Cl)cc3)nn2)C1` (racemic) [Compound 8.2, rac-[6-(4-Chloro-phenylamino)-pyridazin-3-yl]-(3-methyl-piperidin-1-yl)-methanone]: the inhibition at 10 µM stood at 100%.

As to `Cc1cccc(C#C[C@]2(O)CCC[C@@H]3[C@H]2CCN3C(=O)c2ccc(Nc3ccc(Cl)cc3)nc2)c1` (relative stereo) [Compound 4.14, [6-(4-Chloro-phenylamino)-pyridin-3-yl]-(rel-(3aR,4S,7aR)-4-hydroxy-4-m-tolylethynyl-octahydro-indol-1-yl)-methanone], the inhibition at 10 µM was determined as 86%.

Consider `CCN(CC)C(=O)c1ccc(Nc2ccc(Cl)cc2)nc1` [Compound 1.1, 6-(4-Chloro-phenylamino)-N,N-diethyl-nicotinamide hydrochloride], for which the inhibition at 10 µM was 95%.

For the compound `CCN(CC)C(=O)c1ccc(Nc2ccc(C)cc2)nc1` [Compound 1.2, N,N-Diethyl-6-p-tolylamino-nicotinamide hydrochloride], the inhibition at 10 µM was 93%.

As for `CCN(CC)C(=O)c1ccc(Nc2ccc(OC)cc2)nc1` [Compound 1.3, N,N-Diethyl-6-(4-methoxy-phenylamino)-nicotinamide hydrochloride], the inhibition at 10 µM stood at 75%.

For the compound `COCCN(CCOC)C(=O)c1ccc(Nc2ccc(Cl)cc2)nc1` [Compound 1.4, 6-(4-Chloro-phenylamino)-N,N-bis-(2-methoxy-ethyl)-nicotinamide hydrochloride], the inhibition at 10 µM amounted to 37%.

In the case of `O=C(c1ccc(Nc2ccc(Cl)c(F)c2)nc1)N1CCCCC1` [Compound 1.5, [6-(4-Chloro-3-fluoro-phenylamino)-pyridin-3-yl]-piperidin-1-yl-methanone], the inhibition at 10 µM is 90%.

Consider `O=C(c1ccc(Nc2ccc(Br)cc2)nc1)N1CCCCC1` [Compound 1.6, [6-(4-Bromo-phenylamino)-pyridin-3-yl]-piperidin-1-yl-methanone], for which the inhibition at 10 µM was 96%.

With `N#Cc1ccc(Nc2ccc(C(=O)N3CCCCC3)cn2)cc1` [Compound 1.7, 4-[5-(Piperidine-1-carbonyl)-pyridin-2-ylamino]-benzonitrile], the inhibition at 10 µM was determined as 77%.

`O=C(c1ccc(Nc2ccc(OC(F)(F)F)cc2)nc1)N1CCCCC1` [Compound 1.8, Piperidin-1-yl-[6-(4-trifluoromethoxy-phenylamino)-pyridin-3-yl]-methanone]: the inhibition at 10 µM came out at 54%.

Take `CC1CCCCN1C(=O)c1ccc(Nc2ccc(Cl)cc2)nc1` (stereo not shown) [Compound 1.9, [6-(4-Chloro-phenylamino)-pyridin-3-yl]-(2-methyl-piperidin-1-yl)-methanone hydrochloride]: the inhibition at 10 µM came out at 97%.

Regarding `Cc1ccc(Nc2ccc(C(=O)N3CCCCC3C)cn2)cc1` (stereo not shown) [Compound 1.10, (2-Methyl-piperidin-1-yl)-(6-p-tolylamino-pyridin-3-yl)-methanone], the inhibition at 10 µM was 94%.

`COc1ccc(Nc2ccc(C(=O)N3CCCCC3C)cn2)cc1` (stereo not shown) [Compound 1.11, [6-(4-Methoxy-phenylamino)-pyridin-3-yl]-(2-methyl-piperidin-1-yl)-methanone hydrochloride]: the inhibition at 10 µM was 71%.

As to `C[C@H]1CCCN(C(=O)c2ccc(Nc3ccc(Cl)cc3)nc2)C1` [Compound 1.12a, [6-(4-Chloro-phenylamino)-pyridin-3-yl]-(S-3-methyl-piperidin-1-yl)-methanone], the “mGluR5 Activity inh. at 10 μM [%]” value worked out at 99%.

Turning to `C[C@@H]1CCCN(C(=O)c2ccc(Nc3ccc(Cl)cc3)nc2)C1` [Compound 1.12b, [6-(4-Chloro-phenylamino)-pyridin-3-yl]-(R-3-methyl-piperidin-1-yl)-methanone], the inhibition at 10 µM was 100%.

As for `Cc1ccc(Nc2ccc(C(=O)N3CCCC(C)C3)cn2)cc1` (stereo not shown) [Compound 1.13], the “mGluR5 Activity inh. at 10 μM [%]” value was determined as 96%.

With `COc1ccc(Nc2ccc(C(=O)N3CCCC(C)C3)cn2)cc1` (stereo not shown) [Compound 1.14, [6-(4-Methoxy-phenylamino)-pyridin-3-yl]-(3-methyl-piperidin-1-yl)-methanone hydrochloride], the inhibition at 10 µM was found to be 94%.

On to `CC1CCCN(C(=O)c2ccc(Nc3ccccc3)nc2)C1` (stereo not shown) [Compound 1.15, (3-Methyl-piperidin-1-yl)-(6-phenylamino-pyridin-3-yl)-methanone hydrochloride], for which the inhibition at 10 µM was determined as 88%.

With `CC1CCCN(C(=O)c2ccc(Nc3cccc(Cl)c3)nc2)C1` (stereo not shown) [Compound 1.16, [6-(3-Chloro-phenylamino)-pyridin-3-yl]-(3-methyl-piperidin-1-yl)-methanone hydrochloride], the inhibition at 10 µM is 54%.

In the case of `O=C(c1ccc(Nc2ccc(Cl)cc2)nc1)N1CCOCC1` [Compound 1.17, [6-(4-Chloro-phenylamino)-pyridin-3-yl]-morpholin-4-yl-methanone hydrochloride], the inhibition at 10 µM worked out at 83%.

`COc1ccc(Nc2ccc(C(=O)N3CCOCC3)cn2)cc1` [Compound 1.18, [6-(4-Methoxy-phenylamino)-pyridin-3-yl]-morpholin-4-yl-methanone hydrochloride]: the inhibition at 10 µM was found to be 32%.

As for `C[C@@H]1CN(C(=O)c2ccc(Nc3ccc(Cl)cc3)nc2)C[C@H](C)O1` [Compound 1.19, cis-[6-(4-Chloro-phenylamino)-pyridin-3-yl]-(2,6-dimethyl-morpholin-4-yl)-methanone hydrochloride], the inhibition at 10 µM stood at 94%.

Turning to `Cc1ccc(Nc2ccc(C(=O)N3C[C@@H](C)O[C@@H](C)C3)cn2)cc1` [Compound 1.20, (cis-2,6-Dimethyl-morpholin-4-yl)-(6-p-tolylamino-pyridin-3-yl)-methanone hydrochloride], the inhibition at 10 µM stood at 95%.

Consider `COc1ccc(Nc2ccc(C(=O)N3C[C@@H](C)O[C@@H](C)C3)cn2)cc1.Cl` [Compound 1.21, (cis-Z 6-Dimethyl-morpholin-4-yl)-[6-(4-methoxy-phenylamino)-pyridin-3-yl]-methanone hydrochloride], for which the “mGluR5 Activity inh. at 10 μM [%]” value stood at 57%.

Turning to `O=C(c1ccc(Nc2ccc(Cl)cn2)nc1)N1CCCCC1` [Compound 2.1, [6-(5-Chloro-pyridin-2-ylamino)-pyridin-3-yl]-piperidin-1-yl-methanone], the inhibition at 10 µM worked out at 60%.

For the compound `O=C(c1ccc(Nc2cccnc2)nc1)N1CCCCCC1` [Compound 2.2, Azepan-1-yl-[6-(pyridin-3-ylamino)-pyridin-3-yl]-methanone], the inhibition at 10 µM was 46%.

In the case of `O=C(c1ccc(Nc2ccc(F)c(F)c2)nc1)N1CCCCC1` [Compound 2.3, [6-(3,4-Difluoro-phenylamino)-pyridin-3-yl]-piperidin-1-yl-methanone], the inhibition at 10 µM was 65%.

Turning to `O=C(c1cnc(Nc2ccc(Cl)cc2)c(Cl)c1)N1CCSCC1` [Compound 2.5, [5-Chloro-6-(4-chloro-phenylamino)-pyridin-3-yl]-thiomorpholin-4-yl-methanone], the inhibition at 10 µM worked out at 97%.

As to `COc1ccc(Nc2ncc(C(=O)N3CCCCCC3)cc2Cl)cn1` [Compound 2.7, Azepan-1-yl-[5-chloro-6-(6-methoxy-pyridin-3-ylamino)-pyridin-3-yl]-methanone], the inhibition at 10 µM stood at 98%.

In the case of `COc1ccc(Nc2ncc(C(=O)N3CCCCC3)cc2Cl)cn1` [Compound 2.8, [5-Chloro-6-(6-methoxy-pyridin-3-ylamino)-pyridin-3-yl]-piperidin-1-yl-methanone], the inhibition at 10 µM worked out at 96%.
